Measurements as given in patent publication US6387655B1, “Excitatory amino acid receptor protein and related nucleic acid compounds” (Eli Lilly and Company, priority 1995, dated 2002).
Like-named read-outs stand apart in the source and are kept apart here.

Target: T1, human HmGluR3 (Homo sapiens, UniProt Q14832)
T1 construct: expressed in transfected cells; host or cells: RGT (RGT-18) cells, i.e. AV12 cells stably expressing the rat glutamate transporter GLAST
Test: Inhibition of forskolin-stimulated cAMP synthesis (adenylate cyclase activity) in RGT cells stably transfected with pGTh-HmGluR3
Assay type: cell-based
Description: In an especially preferred embodiment of this invention an assay measuring the inhibition of forskolin-stimulated cAMP synthesis was performed. The inhibition of cAMP synthesis is known to positively correlated with the addition of glutamate to cells containing certain types of metabotropic receptors.
Adenylate cyclase activity was determined in initial experiments in transfected mammalian cells, using standard techniques. See. e.g., N. Adham, et al., supra,; R. L. Weinshank, et al., Proceedings of the National Academy of Sciences (USA), 89:3630-3634 (1992), and the references cited therein.
As noted above, mammalian cells (the cell line RGT) were stably transfected with the plasmid pGTh-HmGluR3, containing human HmGluR3 cDNA inserted in the plasmid vector pGTh, as depicted in FIG. 2. The cells were maintained in a medium consisting of Dulbecco's Modified Eagle's Medium (DMEM) containing 5% dialyzed fetal calf serum, 10 mM HEPES buffer (pH 7.3), 1 mM sodium pyruvate, 1 mM glutamine, and 200 μg/ml hygromycin.
For the assay the cells were disassociated from stock culture flasks with trypsin, and planted in 24-well plastic culture dishes (15 mm wells) at a density of 500-700,000 cells per well using the same culture medium. After twenty four hours incubation in a humidified carbon dioxide incubator, the cell monolayers are washed with buffer (Dulbecco's phosphate-buffered saline containing 0.5 mM isobutylmethylxanthine and 3 mM glucose) and then incubated in the same buffer at 37° C. for 30 minutes. The monolayers are then washed four additional times with buffer.
Drugs and forskolin, or forskolin alone, dissolved in buffer, was added after the final wash. After incubating for 20 minutes at 37° C., 0.5 ml of 8 mM EDTA was added to each well. The plates were then placed in a boiling water bath for about four minutes. The supernatant fluids are then recovered from the wells and lyophilized. Cyclic adenosinemonophosphate (cAMP) determinations were carried out on the lyophilized samples using commercially available radioimmunoassay kits, following the manufacturer's instructions. The cAMP level in wells containing drug was compared to the forskolin controls.

[1] = RGT cells expressing HmGluR3, cAMP by radioimmunoassay versus forskolin controls, 20 minutes at 37° C., read-out: EC50 (potencies of selected agonists for HmGluR3 expressed in RGT cells)

T1 sequence (Q14832 23-879): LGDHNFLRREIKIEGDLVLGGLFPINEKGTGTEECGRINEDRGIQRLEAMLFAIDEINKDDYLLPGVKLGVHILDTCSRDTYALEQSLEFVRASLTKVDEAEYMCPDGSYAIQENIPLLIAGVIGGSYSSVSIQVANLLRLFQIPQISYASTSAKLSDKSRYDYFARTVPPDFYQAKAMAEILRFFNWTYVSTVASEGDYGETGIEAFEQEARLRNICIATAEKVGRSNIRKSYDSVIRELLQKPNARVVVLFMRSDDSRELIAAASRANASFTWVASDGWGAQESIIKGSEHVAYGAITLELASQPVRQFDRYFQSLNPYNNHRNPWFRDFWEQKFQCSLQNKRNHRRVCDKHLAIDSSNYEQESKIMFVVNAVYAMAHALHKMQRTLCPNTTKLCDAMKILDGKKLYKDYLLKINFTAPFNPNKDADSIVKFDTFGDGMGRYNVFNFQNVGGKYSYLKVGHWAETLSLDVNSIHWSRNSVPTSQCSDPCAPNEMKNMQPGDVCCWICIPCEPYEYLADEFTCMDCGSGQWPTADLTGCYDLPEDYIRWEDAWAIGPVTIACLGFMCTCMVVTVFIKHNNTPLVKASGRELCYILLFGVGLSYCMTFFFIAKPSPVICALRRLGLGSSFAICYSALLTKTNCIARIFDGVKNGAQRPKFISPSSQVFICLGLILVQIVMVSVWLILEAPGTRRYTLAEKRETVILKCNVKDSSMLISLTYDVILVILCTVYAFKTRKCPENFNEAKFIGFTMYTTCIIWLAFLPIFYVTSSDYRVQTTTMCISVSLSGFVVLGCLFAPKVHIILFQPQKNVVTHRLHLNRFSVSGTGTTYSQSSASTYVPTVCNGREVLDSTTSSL

| Structure (SMILES) | EC50 [nM] | EC50 [1] [nM] |
| --- | --- | --- |
| NC1(C(=O)O)CCC(C(=O)O)C1 (stereo not drawn) [1S,3R-1-aminocyclopentant-1,3-dicarboxylic acid] | 2230 | – |
| N[C@@H](CCC(=O)O)C(=O)O [L-Glutamate, 1-aminopropane-1,3-dicarboxylic acid] | 5380 | – |
| NC1(C(=O)O)CNC(C(=O)O)C1 (stereo not drawn) [2R,4R-4-aminopyrrolidine-2,4-dicarboxylate] | – | 550 |
| N[C@H](C(=O)O)C1CC1C(=O)O (stereo partly drawn) [L-2-(carboxycyclopropyl)glycine-I] | – | 12 |
